GI50, IC50 and inhibition data for 13 compounds are collected here from patent US12240844B2 (Voronoi, Inc., priority 2019, dated 2025).

Assay [1] deals with SHP-77. Briefly: SHP-77 cancer cell proliferation inhibition (Cell Titer-Glo). Type of assay: cell-based. The settings on record: Homo sapiens, SHP77, SHP-77 small cell lung cancer cell line, 72 hours. The protocol: (§1) In order to evaluate the cancer cell proliferation inhibitory activity of the compounds of the present invention, the following experiments were performed.
(§2) To evaluate the cancer cell proliferation inhibitory effect, the cell growth rate analysis was performed while culturing MDA-MB-231 cell line (Korean Cell Line Bank #30026) and MDA-MB-468 cell line as the triple-negative breast cancer cell line, and SHP-77 (ATCC #CRL-2195) as the small cell lung cancer cell line in DMEM (HyClone #SH30243) and RPMI medium (HyClone #SH3027.01), respectively. More specifically, the cell lines were each plated at 2000 cells/100 μl in each well of a 96-well flat-bottom plate (coming #3903), and then the example compounds having eleven concentrations which were diluted by ⅓ so that the final concentrations were 10.000000, 3.333333, 1.111111, 0.370370, 0.123457, 0.041152, 0.013717, 0.004572, 0.001524, 0.000508 and 0.000169 μM were treated. After 72 hours, 100 μl of Cell Titer-Glo (Promega G7573) was treated, incubated at RT for 10 minutes, and then luminescence was measured using a microplate reader. The measured luminescence degree was calculated as GI50 using Prism (version 8.2 GraphPad) software.
(§3) In the table below, the following designations were used for the evaluation of proliferation inhibitory activity.
On the technique in general: In ATP-based viability assays light output follows the ATP content of the culture.

In assay [2] the target is LRRK2 (Homo sapiens, UniProt Q5S007). Put plainly: LRRK2 enzyme inhibition, ADP-Glo kinase assay. On the set-up: purchased Invitrogen PR8604B. Type of assay: biochemical. In outline:
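ADP-Glo luminescence read after 2 h at 25° C, 10 μM ATP, 25 ng purified human LRRK2 and […] substrate in Tris-HCl pH7.4 buffer with MgCl2, BSA, DTT. Twelve final concentrations, 50 μM down to 0.000001024 μM; IC50 (nM) from inhibition relative to untreated solvent control.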

Assay [3] concerns the target T1, human GST-CLK1 (129-end) (Homo sapiens, UniProt P49759).
T1 construct: purified human GST-CLK1 (129-end, Signalchem) enzyme; GST; purchased Signalchem
Briefly: GST-CLK1 enzyme inhibition, ADP-Glo kinase assay. Type of assay: biochemical. Conditions: ATP 10 uM. In short, it runs like this:
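ADP formation was read by ADP-Glo luminescence after 1 h at 25° C with 3 ng human GST-CLK1 (129-end), substrate and 10 uM ATP in Tris pH 7.4 buffer containing MgCl2, BSA and DTT. Inhibition relative to untreated solvent control gave IC50 (nM), run in triplicate.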
In general terms: ADP-Glo first removes unused ATP, then detects ADP through luciferase.

For assay [4], the target named is T2, human GST-DYRK1A (full length) (Homo sapiens, UniProt Q13627).
T2 construct: purified human GST-DYRK1A (full length, Thermo scientifics) enzyme; GST; purchased Thermo scientifics
Briefly: GST-DYRK1A enzyme inhibition, ADP-Glo kinase assay. The settings on record: read-out: DYRK1 IC50. Format: biochemical. In outline:
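ADP-Glo luminescence quantified kinase activity after a 1 h, 25° C reaction of 10 ng full-length GST-tagged human DYRK1A, substrate and 10 uM ATP in Tris-HCl buffer pH 7.4 with MgCl2, BSA and DTT. Triplicate IC50 values (nM) calculated relative to untreated solvent control.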

For assay [5], the target named is LRRK2 (G2019S) (Homo sapiens, UniProt Q5S007, G2019S). Put plainly: LRRK2 G2019S enzyme inhibition, ADP-Glo kinase assay. Type of assay: biochemical. More on the design: purchased SignalChem L10-12GG. In short, it runs like this:
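Activity read as ADP-Glo luminescence, normalized to untreated solvent control, with IC50 (nM) fitted over 12 final compound levels (top 50 μM). Reaction: 2 h, 25° C, human LRRK2 G2019S 16 ng, ATP 25 μM, substrate 0.2 μg, in Tris-HCl pH 7.4 with MgCl2, BSA and DTT.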

The test system of assay [6] is MDA-MB-231 cell line. Put plainly: MDA-MB-231 cancer cell proliferation inhibition (Cell Titer-Glo). Format: cell-based. Conditions: Homo sapiens, MDA-MB-231 triple-negative breast cancer cell line, 72 hours. The protocol:
as §1, §2, §3

In assay [7] the test system is human DYRK1A and Tau. Put plainly: Tau phosphorylation inhibition, ClariCELL Kinase Cell-Based Assay (Carnabio). Here is the method:
Tau phosphorylation inhibitory efficacy was measured using the ClariCELL™ Kinase Cell-Based Assay service of Carnabio, located in the United States. The compounds are exposed to human embryonic kidney ([…]) cells transiently expressing human DYRK1A and Tau, and then the cells are lysed to release cellular proteins. At this time, the released Tau is captured on a plate, and the degree of phosphorylation is quantified by ELISA using an antibody specific for Tau phosphorylation.

LRRK2 (G2019S), sequence (Q5S007 970-2527 G2019S limits assumed): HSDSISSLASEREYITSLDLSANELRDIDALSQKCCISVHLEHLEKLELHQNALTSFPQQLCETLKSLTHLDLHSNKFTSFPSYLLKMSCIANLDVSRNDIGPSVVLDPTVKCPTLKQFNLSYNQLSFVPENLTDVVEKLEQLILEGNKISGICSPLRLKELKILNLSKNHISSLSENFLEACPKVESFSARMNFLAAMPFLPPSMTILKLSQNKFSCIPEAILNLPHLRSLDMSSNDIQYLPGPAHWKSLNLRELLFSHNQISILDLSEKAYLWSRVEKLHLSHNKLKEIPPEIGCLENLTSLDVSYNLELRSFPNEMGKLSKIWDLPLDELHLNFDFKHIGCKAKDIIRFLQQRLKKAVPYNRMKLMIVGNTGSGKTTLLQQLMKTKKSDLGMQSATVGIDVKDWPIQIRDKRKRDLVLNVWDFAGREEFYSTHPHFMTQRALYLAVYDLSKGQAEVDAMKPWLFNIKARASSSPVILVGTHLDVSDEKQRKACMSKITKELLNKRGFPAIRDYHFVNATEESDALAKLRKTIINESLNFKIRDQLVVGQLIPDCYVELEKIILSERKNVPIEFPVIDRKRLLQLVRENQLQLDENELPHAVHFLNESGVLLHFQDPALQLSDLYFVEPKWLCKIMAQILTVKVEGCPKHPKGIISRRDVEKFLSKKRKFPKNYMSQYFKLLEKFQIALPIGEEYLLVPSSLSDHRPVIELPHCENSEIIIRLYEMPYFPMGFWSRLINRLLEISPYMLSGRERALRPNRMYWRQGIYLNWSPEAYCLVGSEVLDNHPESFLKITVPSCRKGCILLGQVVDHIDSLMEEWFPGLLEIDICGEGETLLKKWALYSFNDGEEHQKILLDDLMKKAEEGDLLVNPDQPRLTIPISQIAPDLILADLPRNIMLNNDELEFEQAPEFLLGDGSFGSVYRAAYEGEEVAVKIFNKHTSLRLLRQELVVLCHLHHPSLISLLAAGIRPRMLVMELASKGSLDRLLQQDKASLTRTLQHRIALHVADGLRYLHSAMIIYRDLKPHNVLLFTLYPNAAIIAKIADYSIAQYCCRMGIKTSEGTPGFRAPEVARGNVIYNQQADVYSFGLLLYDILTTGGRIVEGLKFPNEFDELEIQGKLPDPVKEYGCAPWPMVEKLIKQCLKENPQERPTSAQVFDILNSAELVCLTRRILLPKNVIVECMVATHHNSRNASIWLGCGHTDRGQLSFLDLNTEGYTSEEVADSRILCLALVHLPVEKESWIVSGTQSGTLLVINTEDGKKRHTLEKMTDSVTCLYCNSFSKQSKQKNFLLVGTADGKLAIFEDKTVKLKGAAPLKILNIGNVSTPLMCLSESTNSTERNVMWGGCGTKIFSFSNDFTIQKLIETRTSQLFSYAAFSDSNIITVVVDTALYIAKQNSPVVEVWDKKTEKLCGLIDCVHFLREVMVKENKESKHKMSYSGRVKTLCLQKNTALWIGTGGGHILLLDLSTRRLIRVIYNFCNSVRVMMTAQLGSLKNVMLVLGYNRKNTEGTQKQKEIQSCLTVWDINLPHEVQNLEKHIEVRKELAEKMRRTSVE
LRRK2, sequence (Q5S007 970-2527 limits assumed): as the sequence (Q5S007 970-2527 G2019S limits assumed) above, with S1050G counted along it
T1 sequence (P49759 129-484 limits assumed): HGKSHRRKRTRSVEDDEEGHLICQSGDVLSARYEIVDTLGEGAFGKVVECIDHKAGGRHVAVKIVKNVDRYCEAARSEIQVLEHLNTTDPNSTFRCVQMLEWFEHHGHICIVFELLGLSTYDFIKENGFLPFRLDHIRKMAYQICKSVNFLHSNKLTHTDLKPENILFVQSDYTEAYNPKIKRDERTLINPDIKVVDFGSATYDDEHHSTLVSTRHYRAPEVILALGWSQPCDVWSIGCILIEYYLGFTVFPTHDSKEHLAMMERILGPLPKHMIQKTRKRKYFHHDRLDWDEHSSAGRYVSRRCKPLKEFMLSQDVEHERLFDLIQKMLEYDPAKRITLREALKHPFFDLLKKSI

As a reminder, the GI50 is the concentration at which growth is held to half of that of the control. High values mean less potent growth inhibition, low ones more potent growth inhibition. For orientation: IC50 means the concentration needed to halve the response being measured. `COc1cc(S(=O)(=O)N2CCOCC2)ccc1Nc1cc(NC2CC2)c2c(C#N)c[nH]c2n1` [Example 127, 4-(cyclopropylamino)-6-((2-methoxy-4-(morpholinosulfonyl)phenyl)amino)-1H-pyrrolo[2,3-b]pyridine-3-carbonitrile]: the values for the GI50 in assay [1] and in assay [6] were under 50 nM and 51 to 100 nM, respectively. The IC50 was under 100 nM in assay [2], 301 to 1000 nM in assay [3], 301 to 1000 nM in assay [4] and 101 to 300 nM in assay [5].
Consider `COc1cc(S(=O)(=O)N2CCC(N3CCOCC3)CC2)ccc1Nc1cc(NCC(C)C)c2c(C(F)(F)F)c[nH]c2n1` [Example 191, N^4-isobutyl-N^6-(2-methoxy-4-((4-morpholinopiperidin-1-yl)sulfonyl)phenyl)-3-(trifluoromethyl)-1H-pyrrolo[2,3-b]pyridine-4,6-diamine], for which the GI50 in assay [1] and in assay [6] was 301 to 1000 nM throughout. The IC50 was 101 to 300 nM in assay [2], 301 to 1000 nM in assay [3], 301 to 1000 nM in assay [4] and 301 to 1000 nM in assay [5].
As to `CNc1cc(Nc2ccc(S(=O)(=O)N3CCC(N4CCOCC4)CC3)cc2OC)nc2[nH]cc(C#N)c12` [Example 137, 6-((2-methoxy-4-((4-morpholinopiperidin-1-yl)sulfonyl)phenyl)amino)-4-(methylamino)-1H-pyrrolo[2,3-b]pyridine-3-carbonitrile], the GI50 in assay [1] and in assay [6] was 51 to 100 nM in each case. Further, the IC50 in assay [2] is under 100 nM; in assay [3] it was 301 to 1000 nM; in assay [4], 301 to 1000 nM; in assay [5], under 100 nM.
On to `CCNc1cc(Nc2ccc(S(=O)(=O)N3CCOCC3)cc2OC)nc2[nH]cc(C#N)c12` [Example 132, 4-(ethylamino)-6-((2-methoxy-4-(morpholinosulfonyl)phenyl)amino)-1H-pyrrolo[2,3-b]pyridine-3-carbonitrile], for which the GI50 was in the range of 51 to 100 nM in assay [1] and 101 to 300 nM in assay [6]. Further, the IC50 in assay [2] is under 100 nM; in assay [3], 301 to 1000 nM; in assay [4] it was 301 to 1000 nM; in assay [5], 101 to 300 nM.
In the case of `COc1cc(S(=O)(=O)N2CCC(N3CCOCC3)CC2)ccc1Nc1cc(NC2CCC2)c2c(C#N)c[nH]c2n1` [Example 135, 4-(cyclobutylamino)-6-((2-methoxy-4-((4-morpholinopiperidin-1-yl)sulfonyl)phenyl)amino)-1H-pyrrolo[2,3-b]pyridine-3-carbonitrile], the GI50 was under 50 nM in assay [1] and 51 to 100 nM in assay [6]. The IC50 was under 100 nM in assay [2], 301 to 1000 nM in assay [3], 301 to 1000 nM in assay [4] and under 100 nM in assay [5].
As to `COc1cc(S(=O)(=O)N2CCOCC2)ccc1Nc1cc(NCCS(C)(=O)=O)c2c(C(F)(F)F)c[nH]c2n1` [Example 192, N^6-(2-methoxy-4-(morpholinosulfonyl)phenyl)-N^4-(2-(methylsulfonyl)ethyl)-3-(trifluoromethyl)-1H-pyrrolo[2,3-b]pyridine-4,6-diamine], the GI50 in assay [1] and in assay [6] was 301 to 1000 nM in each case. The IC50 in assay [2] is 101 to 300 nM; in assay [3] it was 301 to 1000 nM; in assay [4], under 100 nM; in assay [5] it was 301 to 1000 nM.
For the compound `COc1cc(S(=O)(=O)N2CCOCC2)ccc1Nc1cc(NC2CCC2)c2c(C#N)c[nH]c2n1` [Example 128, 4-(cyclobutylamino)-6-((2-methoxy-4-(morpholinosulfonyl)phenyl)amino)-1H-pyrrolo[2,3-b]pyridine-3-carbonitrile], the GI50 in assay [1] was under 50 nM; in assay [6], 51 to 100 nM. Moreover, the IC50 was under 100 nM in assay [2], 301 to 1000 nM in assay [3], 301 to 1000 nM in assay [4] and 301 to 1000 nM in assay [5].
One may read the inhibition as the change of the read-out against control, counted positive when it falls. Read a low inhibition as little suppression. `CCCNc1cc(Nc2ccc(S(=O)(=O)N3CCC(N4CCOCC4)CC3)cc2OC)nc2[nH]cc(C(F)(F)F)c12` [Example 40, N^6-(2-methoxy-4-((4-morpholinopiperidin-1-yl)sulfonyl)phenyl)-N^4-propyl-3-(trifluoromethyl)-1H-pyrrolo[2,3-b]pyridine-4,6-diamine]: the GI50 in assay [1] and in assay [6] was 301 to 1000 nM throughout. Further, the figures for the half-maximal inhibitory concentration (IC50) in assay [2], in assay [3] and in assay [4] were 301 to 1000 nM, 301 to 1000 nM and under 100 nM, respectively. The inhibition at 0.25 µM in assay [7] (0.25 uM) turned out to be 9.2%. The compound further came in with an inhibition at 0.5 µM in assay [7] (0.5 uM) of 15.2%. In addition, in assay [7] (1 uM), at 1 µM the inhibition was 38.7%.
Regarding `COc1cc(S(=O)(=O)N2CCOCC2)ccc1Nc1cc(NC2CC2)c2c(C(F)(F)F)c[nH]c2n1` [Example 186, N^4-cyclopropyl-N^6-(2-methoxy-4-(morpholinosulfonyl)phenyl)-3-(trifluoromethyl)-1H-pyrrolo[2,3-b]pyridine-4,6-diamine], the GI50 in assay [1] and in assay [6] was 301 to 1000 nM each time. Besides, the IC50 in assay [2], in assay [3], in assay [4] and in assay [5] was 301 to 1000 nM throughout.
On to `CNc1cc(Nc2ccc(S(=O)(=O)N3CCOCC3)c3c2OCCO3)nc2[nH]cc(C(F)(F)F)c12` [Example 98, N^4-methyl-N^6-(8-(morpholonosulfonyl)-2,3-dihydrobenzo[b] [1,4]dioxin-5-yl)-3-(trifluoromethyl)-1H-pyrrolo[2,3-b]pyridine-4,6-diamine], for which the GI50 in assay [1] lay in the range of 301 to 1000 nM; in assay [6] it was 101 to 300 nM. Moreover, the IC50 in assay [2] is 101 to 300 nM; in assay [3] it was 301 to 1000 nM; in assay [4], 101 to 300 nM; in assay [5] it was under 100 nM.
For the compound `O=S(=O)(c1ccc(Nc2cc(C3CC3)c3c(C(F)(F)F)c[nH]c3n2)c2c1OCCO2)N1CCOCC1` [Example 100, 4-cyclopropyl-N-(8-(morpholinosulfonyl)-2,3-dihydrobenzo[b] [1,4]dioxin-5-yl)-3-(trifluoromethyl)-1H-pyrrolo[2,3-b]pyridine-6-amine], the GI50 in assay [1] and in assay [6] was 301 to 1000 nM in each case. Besides, the IC50 in assay [2] is 301 to 1000 nM; in assay [3], 301 to 1000 nM; in assay [4], under 100 nM; in assay [5], 301 to 1000 nM.
As to `CNc1cc(Nc2ccc(S(=O)(=O)N3CCOCC3)cc2OC)nc2[nH]cc(C#N)c12` [Example 131, 6-((2-methoxy-4-(morpholinosulfonyl)phenyl)amino)-4-(methylamino)-1H-pyrrolo[2,3-b]pyridine-3-carbonitrile], the GI50 in assay [1] is under 50 nM; in assay [6], 51 to 100 nM. The IC50 was under 100 nM in assay [2], 301 to 1000 nM in assay [3], 301 to 1000 nM in assay [4] and under 100 nM in assay [5].
On to `COc1cc(S(=O)(=O)N2CCOCC2)ccc1Nc1cc(NC2CCCCC2)c2c(C(F)(F)F)c[nH]c2n1` [Example 181, N^4-cyclohexyl-N^6-(2-methoxy-4-(morpholinosulfonyl)phenyl)-3-(trifluoromethyl)-1H-pyrrolo[2,3-b]pyridine-4,6-diamine], for which the GI50 in assay [1] and in assay [6] was 301 to 1000 nM throughout. Moreover, the IC50 in assay [2], in assay [3], in assay [4] and in assay [5] was 301 to 1000 nM each time.
